Measured values published in patent publication US20260183209A1, “USE OF SANDALORE FOR IMPROVING THE STRUCTURE OF HAIR” (WELLA GERMANY GMBH, priority 2022, published 2026).

Experiments:
[1] = test system: hair follicles of ex vivo human scalp skin culture; experiment: Cross-section / hair shaft diameter in ex vivo human scalp skin culture; type: cell-based
Procedure: (§1) The “cross-section” or “diameter” of hair is determined by the microscopic sectioned, newly formed hair shaft diameter in the keratogenous region (in a distance of around 200-350 μm from the ‘germative matrix’). In an ex vivo human scalp skin culture and treatment, 6 mm skin punches (hairy skin from a healthy donor) were made following the hair growth orientation and maintained in normoxic (37° C., 5% CO2) condition. After 24 h resting (and then keeping) the culture in an Air-Liquid Interphase, two topical treatment were performed (day 1 and 3). Punches were embedded in an optimal cutting temperature compound after 5 days of ex vivo culture and cryosectioned (7 μm sections). The average value is calculated from 5 independent measurements for each hair follicle (HF).
In an ex vivo human scalp skin culture, punches (hairy skin from a human donors) were twice (day 1 and 3) treated topically, and analysed via crysectioning after 5 days. The average value for each hair follicle (HF) is calculated from 5 independent measurements, and the following table indicates the mean of all average values over the total number of hair follices (#HFs) measured.

keratin 85 (KRT85) = experiment: Keratin 85 expression, fluorescence intensity in the precortical hair matrix of ex vivo human scalp skin sections; type: cell-based
Procedure: as §1
Expression of keratin 85 (KRT85) is set by fluorescence intensity in the precortical hair matrix with a fluorescence microscope at 20× magnification. Skin sections were co-stained o.n. at 4° C. with a guinea pig anti-KRT85 antibody (Progen, 1:200) followed by DAPI (IUPAC: 4′,6-Diamidino-2-phenylindol) counterstain to visualize the nuclei. The mean KRT85 expression value was calculated from all hair follicles with Image J software within each donor, and fold changes values versus vehicle group were determined.

[2] = molecular target: T1, olfactory receptor OR2AT4 (Homo sapiens, UniProt A6NND4); settings: receptor expressed in the epithelium of human hair follicles; cited from earlier work
T1 sequence (A6NND4 1-320): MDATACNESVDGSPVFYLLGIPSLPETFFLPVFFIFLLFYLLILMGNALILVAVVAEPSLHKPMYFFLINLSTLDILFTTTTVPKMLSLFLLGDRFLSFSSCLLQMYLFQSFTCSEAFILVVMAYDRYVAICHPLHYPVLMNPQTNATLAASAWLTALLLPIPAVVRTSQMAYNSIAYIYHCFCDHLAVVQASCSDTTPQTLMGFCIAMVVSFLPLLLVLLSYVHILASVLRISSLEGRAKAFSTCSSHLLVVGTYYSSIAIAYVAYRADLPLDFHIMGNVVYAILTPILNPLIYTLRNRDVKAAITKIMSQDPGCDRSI

SMILES: CC1=CCC(CCC(C)C(C)O)C1(C)C (centres unmarked) [Sandalore, 3-methyl-5-(2,2,3-trimethylcyclopent-3-en-1-yl) pentan-2-ol]
- effect on hair shaft diameter as compared to vehicle ([1]; ex vivo human scalp skin culture, vs vehicle): increases the hair shaft diameter significantly
- hair shaft diameter ([1]; ex vivo human scalp skin punches, topical treatment day 1 and 3, cryosectioned after 5 days, mean over all hair follicles): 51.1 μm
- KRT85 expression, change vs vehicle group (keratin 85 (KRT85); fluorescence intensity, anti-KRT85 antibody staining, precortical hair matrix, mean over hair follicles): 1.347 fold
- KRT85 expression, comparison in words (keratin 85 (KRT85); fold change values, vs vehicle group or vs Sandalore alone): significantly higher
- effect on olfactory receptor OR2AT4 [2]: stimulatory effect
